Patent publication US8742121B2, “Process for the preparation of small molecule inhibitors of MDM2 and intermediates used therein” (The Regents of the University of Michigan, priority 2005, dated 2014)
Where two headings read alike, the source gives them in different places. Blank lines part the entries; values can stand above or below the compound they belong to.

What was measured:
[1] = molecular target: T1, recombinant human MDM2 protein (residues 1-118, His-tag) (Homo sapiens, UniProt Q00987); assay: Fluorescence polarization (FP)-based competitive binding assay with PMDM6-F probe; conditions: for Ki: competition with PMDM6-F, FIG. 4B/5
T1 construct: The recombinant MDM2 human protein (residues 1-118) fused to His-tag at the N terminus; His-tag (N)

[2] = tested on: LNCaP prostate cancer cells (p53 wild-type); assay: WST-8 cell growth inhibition assay, LNCaP; format: cell-based; conditions: Homo sapiens, 96 h
[3] = tested on: PC-3 prostate cancer cells (p53 null); assay: WST-8 cell growth inhibition assay, PC-3
[4] = tested on: normal human prostate epithelial cells (PrEC) with wild-type p53; assay: WST-8 cell growth inhibition assay, PrEC; format: cell-based
[5] = tested on: HT-29 (mutant p53) colon cancer cells; assay: Cell cycle progression (BrdU/7-AAD flow cytometry), HT-29; format: cell-based; conditions: HT-29, 22 + 2 hours, FIG. 14
Experimental: (§1) Cell cycle progression was evaluated in RKO (wild-type p53) and HT-29 (mutant p53) colon cancer cell lines and CCD-18Co normal colon fibroblast cells by determining S-phase cells by incorporation of bromodeoxyuridine (BrdU) followed by staining with FITC-labeled anti-BrdU antibody and the total DNA-content by staining with 7-aminoactinomycin D (7-AAD) according to manufacturer's instructions (BD Biosciences, San Jose, Calif.). Briefly, cancer and normal cells, after overnight incubation, were treated with out test compounds for 22 hours, followed by an additional 2 hours of incubation with 10 μM of BrdU. Cells were harvested, fixed and stained with FITC-labeled anti-BrdU and 7-AAD. Cell cycle distribution was analyzed by flow cytometry. Cells were acquired and data analyzed by using CellQuest software (BD Biosciences).

[6] = tested on: HCT116 (wild-type p53) colon cancer cells; assay: WST-8 cell growth inhibition assay, HCT116; format: cell-based
[7] = tested on: RKO (wild-type p53) colon cancer cells; assay: WST-8 cell growth inhibition assay, RKO; format: cell-based
[8] = molecular target: T2, p53-MDM2 interaction (Homo sapiens, UniProt Q00987); assay: Co-immunoprecipitation/Western blotting of p53-MDM2 interaction in HCT116 lysates; format: biochemical; conditions: increasing concentrations, 1 h at 4° C., FIG. 10
T2 construct: endogenous in cells; host or cells: HCT116 colon cancer cells (lysate)
Experimental: Co-immunoprecipitation (Co-IP)/Western blotting assays were performed to assess the effects of Ke-43 on p53-MDM2 interaction. After harvesting and washing once with cold PBS, HCT116 colon cancer cells were lysed by sonication in cold Co-IP buffer (50 mM Tris (pH 7.5), 150 mM NaCl, 1 mM EDTA (pH 8.0), 0.5% NP-40) containing 1 mM phenylmethylsulfonyl fluoride and protease inhibitor cocktail. Sonicated lysates were then centrifuged at 12,000×g at 4° C. for 15 minutes. Supernatant containing 2 mg protein was incubated in the absence or presence of Ke-43 for 1 h at 4° C., followed by addition agarose beads, conjugated either with anti-p53 antibody (FL-393, Santa Cruz) or with a non-specific antibody. After mixing for 2 h at 4° C., the agarose beads were washed 3 times with cold Co-IP buffer, boiled in sample buffer followed by SDS-PAGE and the presence of p53 and MDM2 was detected by Western blotting with mouse monoclonal antibodies against p53 and MDM-2 proteins.

[9] = tested on: p53, MDM2 and p21 expression in RKO (wild-type p53) cells; assay: Western blot of p53 and its target gene products MDM2 and p21; format: cell-based; conditions: 24 hours; RKO compared with HT-29 (mutant p53), FIG. 12
Experimental: Cancer cells were treated with test compounds or 0.1% DMSO for 24 hours. Cells were harvested by trypsinization and washed with cold phosphate buffer saline, pH 7.5 (Invitrogen, Carlsbad, Calif.). Cells were lysed for 30 minutes in ice-cold lysis buffer (50 mM Tris (pH 7.5), 150 mM NaCl, 1 mM EDTA (pH 8.0), 25 mM sodium fluoride, 1% NP-40 and 0.1% SDS) containing 2 mM sodium orthovanadate, 1 mM phenylmethylsulfonyl fluoride and protease inhibitor cocktail (Roche Applied Science, Indianapolis, Ind.). Next, cell extracts were centrifuged at 12,000×g at 4° C. for 10 minutes to obtain clarified lysates. Protein was estimated by Bio-Rad dye. Cell lysates containing […] protein were resolved on a 4-20% tris-glycine gel (Invitrogen, Carlsbad, Calif.) and transferred onto poly(vinylidene difluoride) membranes. Immunodetection of proteins on the transfer membrane was performed by using anti-p53 (Ab-6, Oncogene Research Products, Boston, Mass.), anti-MDM2 (SMP14, Santa Cruz Biotechnology, Santa Cruz, Calif.) and anti-p21 (BD Biosciences, San Diego, Calif.) mouse monoclonal antibodies. Antibody to β-actin (Sigma, St Louis, Mo.) was used to assess the protein loading.

[10] = tested on: RKO (wild-type p53) colon cancer cells; assay: Cell cycle progression (BrdU/7-AAD flow cytometry), RKO; format: cell-based; conditions: 22 + 2 hours, FIG. 14
Experimental: as §1

[11] = tested on: RKO (wild-type p53) colon cancer cells; assay: Cell death (trypan blue) and apoptosis (sub-diploid DNA, PI staining); format: cell-based; conditions: 4 days; RKO compared with HT-29 and CCD-18Co, FIG. 13
Experimental: RKO (wild-type p53) and HT-29 (mutant p53) colon cancer cell lines and CCD-18Co normal colon fibroblast cells were treated with increasing doses of Ke-43 or Ke-61 for 4 days in 6-well Petri dishes. Trypan blue dye exclusion assays were performed to determine the ability of the inhibitors to induce cell death. After 4 days of treatment, floating and adherent cells were harvested and stained with 0.2% of trypan blue solution (Sigma, St Louis, Mo.). Each treatment was performed in triplicate and at least 100 cells were counted. Cells stained blue or morphologically unhealthy cells were scored as dead cells. To evaluate apoptosis, sub-diploid DNA content in cells treated with or without test inhibitors was analyzed by propidium iodide (PI) staining After washing once with cold PBS, cells were fixed in 70% ethanol for 1 day at −20° C. Ethanol-fixed cells were then washed twice with PBS and stained with a staining solution containing propidium iodide (PI) at 50 ng/ml and RNAse A at 100 ng/ml in PBS, for 20 minutes in dark at room temperature. Acquisition of cells and analysis of sub-diploid DNA content was performed by flow cytometry using CellQuest software.

[12] = tested on: CCD-18Co normal colon fibroblast cells; assay: Cell cycle progression (BrdU/7-AAD flow cytometry), CCD-18Co; format: cell-based; conditions: 22 + 2 hours, FIG. 14
Experimental: as §1

[13] = tested on: PrEC normal prostate epithelial cells; assay: Protection of normal cells from TAXOL (trypan blue viability); format: cell-based, human; conditions: pretreatment 1 μM and 2.5 μM for 24 hours, then 1 μM TAXOL for 2 days, FIG. 15
Experimental: PrEC normal prostate epithelial cells were seeded in 6 well pates and incubated with Ke-63 (1 μM and 2.5 μM) for 24 hours, then 1 μM TAXOL (paclitaxel) was added for 2 days. Trypan blue was used to determine cell viability.

[14] = 4 days, FIG. 6, read-out: IC50 inhibition of cell growth

Ki [1]: 300 nM
times more potent than 1a (Ki) ([1]; relative to 1a): 28 times
IC50 [2, 14]: 2100 nM
Compound: CC(C)C[C@H]1N[C@@H](C(=O)N(C)C)[C@H](c2cccc(Cl)c2)[C@@]12C(=O)Nc1cc(Cl)ccc12 [Example 1b, (2′R,3S,4′R,5′R) 6-Chloro-4′-(3-Chloro-Phenyl)-2′-Isobutyl-2-Oxo-1,2-Dihydro-Spiro[Indole-3,3′-Pyrrolidine]-5′-Carboxylic Acid Dimethylamide]

Ki [1]: 7700 nM
times less potent than 1b (Ki) ([1]; relative to 1b): 26 times
Compound: CC(C)C[C@H]1N[C@@H](C(=O)N(C)C)[C@H](c2ccc(Cl)cc2)[C@@]12C(=O)Nc1cc(Cl)ccc12 [Example 1c, (2′R,3S,4′R,5′R) 6-Chloro-4′-(4-Chloro-Phenyl)-2′-Isobutyl-2-Oxo-1,2-Dihydro-Spiro[Indole-3,3′-Pyrrolidine]-5′-Carboxylic Acid Dimethylamide]

Compound: CN(C)C(=O)[C@@H]1N[C@H](CC(C)(C)C)[C@]2(C(=O)Nc3cc(Cl)ccc32)[C@H]1c1cccc(Cl)c1 [Example 1d, (2′R,3S,4′R,5′R) 6-Chloro-4′-(3-Chloro-Phenyl)-2-Oxo-2′-(2,2-Dimethylpropyl)-1,2-Dihydro-Spiro[Indole-3,3′-Pyrrolidine]-5′-Carboxylic Acid Dimethylamide]
IC50 ([3]; Homo sapiens, 96 h, read-out: IC50 inhibition of cell growth): 22500 nM
times less active in PC-3 cells than in LNCaP cells ([3]; PC-3 versus LNCaP): 27 times
IC50 ([4]; Homo sapiens, 96 h, PrEC, 4 days, FIG. 8): 6000 nM
times less potent in PrEC cells than in LNCaP cells ([4]; PrEC versus LNCaP): 13 times
IC50 ([2]; read-out: IC50 inhibition of cell growth): 830 nM

Ki [1]: 650 nM
IC50 [2, 14]: 2700 nM
Compound: CCC[C@H]1N[C@@H](C(=O)N(C)C)[C@H](c2cccc(Cl)c2)[C@@]12C(=O)Nc1cc(Cl)ccc12 [Example 1e, (2′R,3S,4′R,5′R) 6-Chloro-4′-(3-Chloro-Phenyl)-2-Oxo-2′-Propyl-1,2-Dihydro-Spiro[Indole-3,3′-Pyrrolidine]-5′-Carboxylic Acid Dimethylamide]

Ki [1]: 390 nM
IC50 [2, 14]: 1900 nM
Compound: CC(C)CC[C@H]1N[C@@H](C(=O)N(C)C)[C@H](c2cccc(Cl)c2)[C@@]12C(=O)Nc1cc(Cl)ccc12 [Example 1f, (2′R,3S,4′R,5′R) 6-Chloro-4′-(3-Chloro-Phenyl)-2′-(3-Methyl-Butyl)-2-Oxo-1,2-Dihydro-Spiro[Indole-3,3′-Pyrrolidine]-5′-Carboxylic Acid Dimethylamide]

Ki values (in words) ([1]; Example 132, FIG. 9, more potent than the natural p53 peptide): low nM to sub-nM range
Compound: CC(C)(C)C[C@H]1N[C@@H](C(=O)NCCN2CCOCC2)[C@H](c2cccc(Br)c2)[C@@]12C(=O)Nc1cc(Cl)ccc12 [Ke-43, (2′R,3S,4′R,5′R) 6-Chloro-4′-(3-Bromo-Phenyl)-2′-(2,2-Dimethyl-Propyl)-2-Oxo-1,2-Dihydro-Spiro[Indole-3,3′-Pyrrolidine]-5′-Carboxylic Acid (2-Morpholin-4-yl-Ethyl)-Amide]
cell cycle progression [5]: no appreciable effect on cell cycle progression
growth inhibitory activity ([6]; HCT116, 4 days, FIG. 11): potent growth inhibitory activity
specificity over cancer cells expressing mutant p53 (HT-29) ([6]; HCT116 versus HT-29): greater than 18 fold
specificity over cancer cells expressing mutant p53 (HT-29) ([7]; RKO versus HT-29): greater than 13 fold
growth inhibitory activity ([7]; RKO, 4 days, FIG. 11): potent growth inhibitory activity
immunoprecipitation of MDM2 by anti-p53 antibody [8]: disrupts the interaction between p53 and MDM2
accumulation of p53 and its target gene-products [9]: induced accumulation of p53 and its target gene-products only in RKO cells expressing wild-type p53
S-phase / cell cycle progression [10]: dose-dependent depletion of S-phase
apoptosis [11]: Only cancer cells expressing wild-type p53 underwent apoptosis
S-phase / cell cycle progression [12]: dose-dependent depletion of S-phase

Compound: COc1ccc2c(c1)NC(=O)[C@]21[C@@H](CC(C)(C)C)N[C@@H](C(=O)N(C)C)[C@@H]1c1cccc(Br)c1 [Ke-61, (2′R,3S,4′R,5′R) 4′-(3-Bromo-Phenyl)-2′-(2,2-Dimethyl-Propyl)-6-Methoxy-2-Oxo-1,2-Dihydro-Spiro[Indole-3,3′-Pyrrolidine]-5′-Carboxylic Acid Dimethylamide]
cell cycle progression [5]: did not have a significant effect
S-phase / cell cycle progression [10]: did not have a significant effect
S-phase / cell cycle progression [12]: did not have a significant effect

Compound: CC(C)(C)C[C@H]1N[C@@H](C(=O)NCCN2CCOCC2)[C@H](c2cccc(Cl)c2F)[C@@]12C(=O)Nc1cc(Cl)ccc12 [Ke-63, (2′R,3S,4S,5′R) 6-Chloro-4′-(3-Chloro-2-Fluoro-Phenyl)-2′-(2,2-Dimethyl-Propyl)-2-Oxo-1,2-Dihydro-Spiro[Indole-3,3′-Pyrrolidine]-5′-Carboxylic Acid (2-Morpholin-4-yl-Ethyl)-Amide]
protection of cells from TAXOL (cell viability) [13]: cells were protected from TAXOL
